Assay results: patent US9303045B2, “5-HT3 receptor antagonists” (Takeda Pharmaceutical Company Limited, priority 2013, dated 2016)
Counter-ions that a name gives are not always drawn.

Legend:
[1] = system: PCP-induced cognitive deficits; experiment: Rodent novel object recognition (NOR) assay in phencyclidine-induced cognitive deficits modeling schizophrenia; type: in vivo, rat; design: key to time spent exploring novel object (TN) / time spent exploring familiar object (TF): exploration time in seconds; conditions: PCP-treated rats, 2 h ITI
Text: Rodent Novel Object Recognition (NOR) Assay in Phencyclidine-Induced Cognitive Deficits Modeling Schizophrenia
The aim of this study was to investigate the ability of the compounds of the invention to improve subchronic PCP-induced impairment in cognition memory using the NOR task in the rat, a paradigm of relevance to cognition in schizophrenia. Adult male Sprague-Dawley rats (250-350 g; Harlan, USA) were used for the experiments Animal were acclimated to the facility for 7 days prior to experimentation. Seven groups of 14 animals per group were used for the experiment. One group of animals received vehicle (0.9% saline twice daily) and the remaining six groups received PCP (2.5 mg/kg, s.c. twice daily) for 7 days, followed by 5-days drug free. On the test day, the animals were allowed to acclimate to the testing room for 30 min prior to initiation of experiments. Experiments were carried out in a white plexiglass chamber, designated as experimental arena. The arena was placed in a dark experimental room that was illuminated by a halogen lamp, providing a dim light to the arena.
Animals were placed in the arena for a 5 minute period to freely explore the test chamber in the absence of objects (habituation). Animals were then returned to their home cage immediately upon completion of habituation for a 120 min period. (1R,3R,5S)-8-Methyl-8-azabicyclo[3.2.1]octan-3-yl 1-(2,2,2-trifluoroethyl)-1H-indole-3-carboxylate (0.1, 1, 10 mg/kg s.c.), or vehicle (veh, saline) was administered 120 min prior to T1 and galantamine (5 mg/kg, i.p.) was administered 30 min prior to T1. Animals were returned to the arena which contained two identical objects (plastic balls) placed at one end of the arena (acquisition, T1), and allowed to explore for a 5 min period. The time spent exploring the two objects was recorded Animals were once again returned to the home cage for a period of 120 min (ITI).
ITI was followed by the retention phase (T2) where one of the objects presented in the first trial was replaced by a novel object and animals were allowed to explore for an additional 5 min period. Again, the time spent exploring the two objects was recorded.
For the retention phase, the differences between the time spent exploring the familiar object and the novel object were examined. All sessions were recorded and scored blindly for the time exploring objects. Exploration is defined as touching the object or directing nose towards object at a distance less that 2 cm. A minimal exploration criterion was used such that only animals with exploration time of greater than 5 seconds per object were included.
Comparisons of all treatment groups were conducted using a one-way ANOVA followed by a Bonferroni's post hoc test for multiple comparisons.

[2] = molecular target: 5HT3a receptor expressed in HEK-293T cells (Homo sapiens (Human), UniProt P46098); experiment: Inhibition of Ca flux activity of 5HT3 in vitro assay; type: cell-based; conditions: calcium flux, 5HT 216 nM, approximate values
Outline: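 HEK-293T cells transiently transfected with human 5HT3a, loaded 1 hour at 37° C with calcium dye in HBSS/20 mM HEPES, preincubated with compound (10^−7 to 10^−10, half-log) 10 minutes at room temperature.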

[3] = 0.1 mg/kg s.c. (bracket prints 0.01 mg/kg)
[4] = 1 mg/kg s.c. (bracket prints 0.1 mg/kg)

Sequence of 5HT3a receptor expressed in HEK-293T cells (P46098 24-478): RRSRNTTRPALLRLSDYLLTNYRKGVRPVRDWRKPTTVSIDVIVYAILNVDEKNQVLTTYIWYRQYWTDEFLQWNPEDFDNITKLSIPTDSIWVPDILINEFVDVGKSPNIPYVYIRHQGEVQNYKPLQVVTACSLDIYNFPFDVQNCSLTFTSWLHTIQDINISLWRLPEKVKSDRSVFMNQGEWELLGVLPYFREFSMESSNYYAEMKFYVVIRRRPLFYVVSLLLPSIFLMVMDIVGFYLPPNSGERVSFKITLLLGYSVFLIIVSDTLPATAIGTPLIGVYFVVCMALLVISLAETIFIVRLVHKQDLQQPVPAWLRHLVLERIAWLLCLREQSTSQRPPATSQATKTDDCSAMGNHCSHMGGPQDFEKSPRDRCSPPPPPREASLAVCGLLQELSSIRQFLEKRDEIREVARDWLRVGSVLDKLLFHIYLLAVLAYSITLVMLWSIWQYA

Compound: COc1ccc2c3c1O[C@H]1C[C@@H](O)C=C[C@@]31CCN(C)C2 [Galantamine, galantamine, reference compound]
- discrimination between familiar and novel objects ([1]; galantamine 5 mg/kg i.p.): statistically significant discrimination
- time spent exploring familiar object (TF) ([1]; galantamine 5 mg/kg i.p.): 11.19±1.376
- time spent exploring novel object (TN) ([1]; galantamine 5 mg/kg i.p.): 22.8±2.2

Compound: O=C(OC1C[C@H]2COC[C@@H](C1)N2)c1cn(S(=O)(=O)C2CC2)c2ccccc12 (stereo partly drawn) [Example 134, (1R,5S,7S)-3-oxa-9-azabicyclo[3.3.1]nonan-7-yl 1-(cyclopropylsulfonyl)-1H-indole-3-carboxylate, 2,2,2-trifluoroacetate]
- IC50 [2]: 1.99 nM

Compound: O=C(O[C@H]1C[C@H]2COC[C@@H](C1)N2)c1cn(-c2cccnn2)c2ccccc12 [Example 136, (1R,5S,7s)-3-oxa-9-azabicyclo[3.3.1]nonan-7-yl 1-(pyridazin-3-yl)-1H-indole-3-carboxylate, 2,2,2-trifluoroacetic acid salt]
- IC50 [2]: 0.914 nM

Compound: O=C(N[C@@H]1CN2CCC1CC2)c1cn(CC(F)F)c2ncccc12 [Example 116, (S)-1-(2,2-difluoroethyl)-N-(quinuclidin-3-yl)-1H-pyrrolo[2,3-b]pyridine-3-carboxamide, 2,2,2-trifluoroacetate]
- IC50 [2]: > 1000 nM

Compound: O=C(OC1C[C@H]2COC[C@@H](C1)N2)c1cn(CC(F)F)c2ccc(F)cc12 (stereo partly drawn) [Example 31, (1R,5S,7S)-3-oxa-9-azabicyclo[3.3.1]nonan-7-yl 1-(2,2-difluoroethyl)-5-fluoro-1H-indole-3-carboxylate, 2,2,2-trifluoroacetate]
- IC50 [2]: 1.29 nM

Compound: N-((1R,5S,7S)-3-oxa-9-azabicyclo[3.3.1]nonan-7-yl)-5-fluoro-1-(2,2,2-trifluoroethyl)-1H-indole-3-carboxamide 2,2,2-trifluoroacetic acid [Example 16]
- IC50 [2]: 3.25 nM

Compound: CN1C2COCC1CC(NC(=O)c1cn(CC#N)c3ccccc13)C2 [Example 159, 1-(cyanomethyl)-N-((1R,5S,7s)-9-methyl-3-oxa-9-azabicyclo[3.3.1]nonan-7-yl)-1H-indole-3-carboxamide, 2,2,2-trifluoroacetic acid salt]
- IC50 [2]: 0.298 nM

Compound: CN1[C@@H]2COC[C@H]1CC(NC(=O)c1cn(-c3ncccn3)c3ccccc13)C2 (stereo partly drawn) [Example 107, N-((1R,5S,7S)-9-methyl-3-oxa-9-azabicyclo[3.3.1]nonan-7-yl)-1-(pyrimidin-2-yl)-1H-indole-3-carboxamide, 2,2,2-trifluoroacetate]
- IC50 [2]: 1.1 nM

Compound: (1R,5S,7s)-3-oxa-9-azabicyclo[3.3.1]nonan-7-yl 1-(pyrazin-2-yl)-1H-indole-3-carboxylate, 2,2,2-trifluoroacetic acid salt [Example 27]
- IC50 [2]: 0.89 nM

Compound: N-((1R,5S,7S)-3-oxa-9-azabicyclo[3.3.1]nonan-7-yl)-5-fluoro-1-(2,2,2-trifluoroethyl)-1H-indole-3-carboxamide 2,2,2-trifluoroacetate [Example 17]
- IC50 [2]: 4.39 nM

Compound: CN1[C@@H]2CC[C@H]1C[C@@H](OC(=O)c1cn(CC(F)(F)F)c3ccccc13)C2
- time spent exploring familiar object (TF) [1, 3]: 12.5±2.152
- time spent exploring novel object (TN) [1, 3]: 22.9±3.65
- discrimination between familiar and novel objects ([1]; 0.1 mg/kg s.c.): did not demonstrate a statistically significant discrimination
- time spent exploring familiar object (TF) [1, 4]: 12.7±1.027
- time spent exploring novel object (TN) [1, 4]: 25.3±2.51
- discrimination between familiar and novel objects ([1]; 1 mg/kg s.c.): demonstrated a statistically significant discrimination
- discrimination between familiar and novel objects ([1]; 10 mg/kg s.c.): demonstrated a statistically significant discrimination
- time spent exploring familiar object (TF) ([1]; 10 mg/kg s.c.): 9.831±1.53
- time spent exploring novel object (TN) ([1]; 10 mg/kg s.c.): 22.8±2.48

Compound: CN1[C@@H]2CC[C@H]1CC(OC(=O)c1cn(CC(F)(F)F)c3ccccc13)C2 (stereo partly drawn) [Example 95, (1R,3R,5S)-8-methyl-8-azabicyclo[3.2.1]octan-3-yl 1-(2,2,2-trifluoroethyl)-1H-indole-3-carboxylate, 2,2,2-trifluoroacetate]
- IC50 [2]: 0.89 nM

Compound: CN1[C@@H]2COC[C@H]1CC(NC(=O)c1cn(-c3ncccn3)c3ccccc13)C2 (stereo partly drawn) [Example 122, N-((1R,5S,7S)-9-methyl-d3-3-oxa-9-azabicyclo[3.3.1]nonan-7-yl)-1-(pyrimidin-2-yl)-1H-indole-3-carboxamide, 2,2,2-trifluoroacetate]
- IC50 [2]: 1.01 nM
